Article PMC9095875, “Solubility measurement and thermodynamic modeling of pantoprazole sodium sesquihydrate in supercritical carbon dioxide” (Scientific Reports, 2022)
“And” between values parts separate entries of the source, which are not always exact repeats. Identical values can stand only once. Marks after values point to notes of the source that are not given here.

Columns and labels:
[1] = Solubility of solid drug in supercritical carbon dioxide (isobaric-isothermal method, UV-Vis at 290 nm); format: physicochemical; conditions: for y2 × 10^4 (mole fraction): value is y2 × 10^4
Description: The method utilized is considered as the isobaric-isothermal method. Each measurement is performed with high precision, during experiments; temperature is maintained at desired value within ± 0.1 K. A known amount of pantoprazole sodium sesquihydrate drug (solute) has been used in the equilibrium cell to measure the solubility data. The capacity of the cell is 70 mL. A magnetic stirrer was mounted with the cell to measure the solubility data. A magnetic stirrer that is mounted with the equilibrium cell helps in attaining equilibrium between the solute and the ScCO2. To confirm equilibrium attainment, the experiments are done with a fresh sample at specified temperature and pressure at various time intervals (5 min, 10 min, 20 min, 30 min, 40 min, 50 min and 60 min) and the solubility readings are recorded. It is observed that the solubility is independent of time after 30 min. Thus, for correct results after 60 min, samples are considered for analysis. After equilibrium, 600 μL of a saturated sample is collected in dematerialized water (DM water's conductivity is 1μS/cm) via a 6-way port, two-status valve. More details are readily available elsewhere[30],[31]. This experimental setup has already been validated in the previous work with alpha-tocopherol and naphthalene. Each experiment is carried out in triplicate. Spectrophotometer (UV-Visible, Model UNICO-4802) is utilized to quantify the pantoprazole sodium sesquihydrate solubility. The drug test samples were prepared by dissolving known weights of drug in known volume of DM water. Pantoprazole sodium sesquihydrate samples were analyzed at 290 nm and calibrations curve was established, indicating R^2 of 0.99. The following sets of equations are used to calculate equilibrium mole fraction, y2, and solubility, S (g/L), in ScCO2:1 y2=nsolute/nsolute+nCO2, where:2 […]/mol,and 3 […]/mol 4 […]) where nsolute and nCO2 are moles of solute (Pantoprazole sodium sesquihydrate) and CO2 in the sampling loop, respectively, Cs is the solute concentration (g/L), Ms and MCO2 are molecular weights of the solute and CO2 and S (g/L) is the equilibrium solubility.

[2] = Thermodynamic properties calculated from constants of the Chrastil, reformulated Chrastil and Bartle solubility models; format: physicochemical
Excerpt: It is the first solvate complex model and correlates solubility as a function of supercritical fluid density and temperature as:18 y2=ρ1^κ-1[…] where κ and E0-E1 are model constants. Since Eq. (13) is dimensionally inconsistent[24],[26],[39], it is dimensionally corrected and known as Reformulated […] model:19 y2=[…] where κ^' and E0-E1 are model constants. It is one of the successful empirical models and correlates solubility as a function of temperature, supercritical fluid density and total pressure as:20 […] where G0-G2 are model constants. From parameter G1 , the vaporization enthalpy is ΔvapH=-G1R in which R is universal gas constant. The new solution model proposed in this work has three adjustable parameters ( ΔCp , a11 and a22 ). For regression, these parameters are treated as temperature dependent and temperature independent. Although conceptually, these parameters are temperature dependent[43],[44], however, in literature, these parameters are handled as temperature independent over a small temperature range[45]. Therefore, both temperature dependent and independent results are reported in this study. For regression, melting temperature and molar volume of pantoprazole sodium sesquihydrate are needed. The required melting temperature is obtained from the material's source and the molar volume of the solid pantoprazole sodium sesquihydrate is calculated using Immirzi and […] method. […] The proposed model correlates the data less than 14.9% and 16.23% in terms of AARD% for temperature dependent and independent cases, respectively. […] The correlations of the solubility data with temperature dependent parameters are better than temperature independent parameters. […], Sodeifian et al., and […] models correlate the solubility data. The correlations of the data are quite satisfactory for […] model compared to […] and Sodeifian models. From the conventional model constants, the thermodynamic properties, namely total heat of enthalpy of vaporization and solvation are calculated and reported in Table 6. […]

y2 × 10^4 (mole fraction) ([1]; in ScCO2, 308 K, 12 MPa, ScCO2 density 769 kg/m^3): 0.0648 mole fraction
y2 × 10^4 (mole fraction) ([1]; in ScCO2, 308 K, 15 MPa, ScCO2 density 817 kg/m^3): 0.0764 mole fraction
y2 × 10^4 (mole fraction) ([1]; in ScCO2, 308 K, 18 MPa, ScCO2 density 849 kg/m^3): 0.0921 mole fraction
y2 × 10^4 (mole fraction) ([1]; in ScCO2, 308 K, 21 MPa, ScCO2 density 875 kg/m^3): 0.0958 mole fraction
y2 × 10^4 (mole fraction) ([1]; in ScCO2, 308 K, 24 MPa, ScCO2 density 896 kg/m^3): 0.1239 mole fraction
y2 × 10^4 (mole fraction) ([1]; in ScCO2, 308 K, 27 MPa, ScCO2 density 914 kg/m^3): 0.1489 mole fraction
y2 × 10^4 (mole fraction) ([1]; in ScCO2, 318 K, 12 MPa, ScCO2 density 661 kg/m^3): 0.0548 mole fraction
y2 × 10^4 (mole fraction) ([1]; in ScCO2, 318 K, 15 MPa, ScCO2 density 744 kg/m^3): 0.0580 mole fraction
y2 × 10^4 (mole fraction) ([1]; in ScCO2, 318 K, 18 MPa, ScCO2 density 791 kg/m^3): 0.0990 mole fraction
y2 × 10^4 (mole fraction) ([1]; in ScCO2, 318 K, 21 MPa, ScCO2 density 824 kg/m^3): 0.1192 mole fraction
y2 × 10^4 (mole fraction) ([1]; in ScCO2, 318 K, 24 MPa, ScCO2 density 851 kg/m^3): 0.1436 mole fraction
y2 × 10^4 (mole fraction) ([1]; in ScCO2, 318 K, 27 MPa, ScCO2 density 872 kg/m^3): 0.1930 mole fraction
y2 × 10^4 (mole fraction) ([1]; in ScCO2, 328 K, 12 MPa, ScCO2 density 509 kg/m^3): 0.0381 mole fraction
y2 × 10^4 (mole fraction) ([1]; in ScCO2, 328 K, 15 MPa, ScCO2 density 656 kg/m^3): 0.0498 mole fraction
y2 × 10^4 (mole fraction) ([1]; in ScCO2, 328 K, 18 MPa, ScCO2 density 725 kg/m^3): 0.1388 mole fraction
y2 × 10^4 (mole fraction) ([1]; in ScCO2, 328 K, 21 MPa, ScCO2 density 769 kg/m^3): 0.1579 mole fraction
y2 × 10^4 (mole fraction) ([1]; in ScCO2, 328 K, 24 MPa, ScCO2 density 802 kg/m^3): 0.2354 mole fraction
y2 × 10^4 (mole fraction) ([1]; in ScCO2, 328 K, 27 MPa, ScCO2 density 829 kg/m^3): 0.3106 mole fraction
y2 × 10^4 (mole fraction) ([1]; in ScCO2, 338 K, 12 MPa, ScCO2 density 388 kg/m^3): 0.0301 mole fraction
y2 × 10^4 (mole fraction) ([1]; in ScCO2, 338 K, 15 MPa, ScCO2 density 557 kg/m^3): 0.0403 mole fraction
y2 × 10^4 (mole fraction) ([1]; in ScCO2, 338 K, 18 MPa, ScCO2 density 652 kg/m^3): 0.1548 mole fraction
y2 × 10^4 (mole fraction) ([1]; in ScCO2, 338 K, 21 MPa, ScCO2 density 710 kg/m^3): 0.1938 mole fraction
y2 × 10^4 (mole fraction) ([1]; in ScCO2, 338 K, 24 MPa, ScCO2 density 751 kg/m^3): 0.3408 mole fraction
y2 × 10^4 (mole fraction) ([1]; in ScCO2, 338 K, 27 MPa, ScCO2 density 783 kg/m^3): 0.4634 mole fraction
cross over pressure ([1]; solubility isotherms 308-338 K in ScCO2, from Fig. 2): around 16.0 MPa
Enthalpy of solvation, ΔHsol ([2]; Bartle et al. and Chrastil models combination (difference of ΔHvap and ΔHtotal)): −15.829 kJ/mol and −15.829^d kJ/mol
Enthalpy of vaporization ΔHvap ([2]; from Bartle et al. model (ΔvapH = −G1R)): ~75.261^c (approximate value) kJ/mol
Total enthalpy, ΔHtotal ([2]; from Reformulated Chrastil model): 39.832^b kJ/mol
Structure (SMILES): COc1ccnc(C[S+]([O-])c2nc3ccc(OC(F)F)cc3[nH]2)c1OC (stereo not shown) [pantoprazole sodium sesquihydrate, Pantoprazole sodium sesquihydrate]
